From ChEMBL document CHEMBL3885861, “Open TG-GATES”

Species: Rattus norvegicus
Assay: Open TG-GATES - Regimen: Single
Format: toxicity, organism-based, Sprague-Dawley
Parameters: regimen Single, gender Male, age 6 weeks
Details: in vivo, po, 0 mg/kg, route gavage, dose level Control; for APTT / Bas / Eos / Fbg / Hb / Ht / Lym / MCH / MCHC / MCV / Mono / Neu / PT / Plat / RBC / Ret / WBC: tissue Blood; for KIDNEY_L / KIDNEY_R / KIDNEY_TOTAL: tissue Kidney; for LIVER: tissue Liver; for A/G / ALP / ALT / AST / BUN / CRE / Ca / Cl / DBIL / GLC / IP / K / LDH / Na / PL / RALB / TBIL / TC / TG / TP / gamma-GTP: tissue Plasma

## O=NN(CCCl)C(=O)NC1CCCCC1 [LOMUSTINE]
3 h
  TERMINAL_BW: 205.6 g
  APTT: 16.5 s
  Bas: 0%
  Eos: 0.6%
  Fbg: 207.8 mg/dL
  Hb: 13 g/dL
  Ht: 39.5%
  Lym: 82%
  MCH: 21.7 pg
  MCHC: 32.9%
  MCV: 66 fL
  Mono: 6.4%
  Neu: 11.2%
  PT: 11 s
  Plat: 100.4 x10_4/uL
  RBC: 599.2 x10_4/ul
  Ret: 8.5%
  WBC: 134.2 x10_2/uL
  KIDNEY_L: 0.9 g
  KIDNEY_R: 0.9 g
  KIDNEY_TOTAL: 1.9 g
  LIVER: 10 g
  A/G: 2
  ALP: 881.4 IU/L
  ALT: 36.4 IU/L
  AST: 66.4 IU/L
  BUN: 14.6 mg/dL
  CRE: 0.6 mg/dL
  Ca: 11.3 mg/dL
  Cl: 106.4 meq/L
  DBIL: 0.072 mg/dL
  GLC: 187 mg/dL
  IP: 9.5 mg/dL
  K: 5 meq/L
  LDH: 89.6 IU/L
  Na: 139.8 meq/L
  PL: 134.4 mg/dL
  RALB: 3.7 g/dL
  TBIL: 0.3 mg/dL
  TC: 76.4 mg/dL
  TG: 50.2 mg/dL
  TP: 5.6 g/dL
  gamma-GTP: 1.4 IU/L
6 h
  TERMINAL_BW: 200.9 g
  APTT: 17.4 s
  Bas: 0%
  Eos: 0.6%
  Fbg: 218.2 mg/dL
  Hb: 13.6 g/dL
  Ht: 41.3%
  Lym: 72%
  MCH: 22 pg
  MCHC: 32.9%
  MCV: 66.7 fL
  Mono: 6.6%
  Neu: 20.6%
  PT: 12.2 s
  Plat: 106.2 x10_4/uL
  RBC: 619.2 x10_4/ul
  Ret: 8.9%
  WBC: 71.6 x10_2/uL
  KIDNEY_L: 1 g
  KIDNEY_R: 1 g
  KIDNEY_TOTAL: 2 g
  LIVER: 9.4 g
  A/G: 2
  ALP: 849.6 IU/L
  ALT: 28.2 IU/L
  AST: 66 IU/L
  BUN: 10.2 mg/dL
  CRE: 0.5 mg/dL
  Ca: 11.1 mg/dL
  Cl: 103.4 meq/L
  DBIL: 0.01 mg/dL
  GLC: 189.6 mg/dL
  IP: 11.2 mg/dL
  K: 5.6 meq/L
  LDH: 116.4 IU/L
  Na: 141.2 meq/L
  PL: 141.6 mg/dL
  RALB: 3.7 g/dL
  TBIL: 0.3 mg/dL
  TC: 78.8 mg/dL
  TG: 50.6 mg/dL
  TP: 5.7 g/dL
  gamma-GTP: 1 IU/L
9 h
  TERMINAL_BW: 199.9 g
  APTT: 16.9 s
  Bas: 0%
  Eos: 0.8%
  Fbg: 213.2 mg/dL
  Hb: 13.1 g/dL
  Ht: 40.2%
  Lym: 79.4%
  MCH: 21.7 pg
  MCHC: 32.6%
  MCV: 66.4 fL
  Mono: 6.2%
  Neu: 14%
  PT: 12.5 s
  Plat: 107.9 x10_4/uL
  RBC: 606.2 x10_4/ul
  Ret: 8.8%
  WBC: 91.5 x10_2/uL
  KIDNEY_L: 0.9 g
  KIDNEY_R: 0.9 g
  KIDNEY_TOTAL: 1.8 g
  LIVER: 8.5 g
  A/G: 2.4
  ALP: 985 IU/L
  ALT: 28 IU/L
  AST: 55.8 IU/L
  BUN: 10.8 mg/dL
  CRE: 0.5 mg/dL
  Ca: 10.8 mg/dL
  Cl: 105.6 meq/L
  DBIL: 0.072 mg/dL
  GLC: 193.6 mg/dL
  IP: 11 mg/dL
  K: 4.8 meq/L
  LDH: 101 IU/L
  Na: 139 meq/L
  PL: 120.8 mg/dL
  RALB: 3.9 g/dL
  TBIL: 0.3 mg/dL
  TC: 67.2 mg/dL
  TG: 43.2 mg/dL
  TP: 5.6 g/dL
  gamma-GTP: 1.4 IU/L
24 h
  TERMINAL_BW: 218.2 g
  APTT: 16 s
  Bas: 0%
  Eos: 0.4%
  Fbg: 225 mg/dL
  Hb: 13 g/dL
  Ht: 38.8%
  Lym: 80.4%
  MCH: 22.5 pg
  MCHC: 33.5%
  MCV: 67.2 fL
  Mono: 6.4%
  Neu: 12.4%
  PT: 11.9 s
  Plat: 100.3 x10_4/uL
  RBC: 578.2 x10_4/ul
  Ret: 8.8%
  WBC: 130.7 x10_2/uL
  KIDNEY_L: 1 g
  KIDNEY_R: 1 g
  KIDNEY_TOTAL: 2 g
  LIVER: 11.5 g
  A/G: 2.1
  ALP: 991.8 IU/L
  ALT: 35 IU/L
  AST: 63.6 IU/L
  BUN: 19.2 mg/dL
  CRE: 0.5 mg/dL
  Ca: 11.3 mg/dL
  Cl: 104.8 meq/L
  DBIL: 0.018 mg/dL
  GLC: 203.8 mg/dL
  IP: 8.4 mg/dL
  K: 5.4 meq/L
  LDH: 130.2 IU/L
  Na: 138.2 meq/L
  PL: 146.6 mg/dL
  RALB: 3.9 g/dL
  TBIL: 0.4 mg/dL
  TC: 79.8 mg/dL
  TG: 96.6 mg/dL
  TP: 5.8 g/dL
  gamma-GTP: 1.4 IU/L
